Measured values published in ChEMBL document CHEMBL1201862, “PubChem BioAssay data set” (2004).
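Growth conditions: 96-well plates. Treatment: test compound, 48 hours, 5 concentrations. Analysis: linear interpolation between bracketing concentrations; unreached endpoints set to highest concentration. GI50 is the concentration that inhibits growth by half.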 Calls of active or inactive are those of the source. Rule as the data show it: active = GI50 up to about 1.1 µM and inactive = higher.

Legend:
Experiment in all cases: NCI-60 cell line screen, 48 h
[1] = system: TK-10
[2] = system: NCI-H226
[3] = system: HOP-62
[4] = system: SF-268
[5] = system: PC-3
[6] = system: U-251
[7] = system: OVCAR-4
[8] = system: OVCAR-5
[9] = system: MDA-N
[10] = system: ACHN
[11] = system: Malme-3M
[12] = system: SK-MEL-5
[13] = system: SF-295
[14] = system: HT-29
[15] = system: K562
[16] = system: 786-0
[17] = system: T47D
[18] = system: HOP-92
[19] = system: HL-60

Row | SMILES | GI50 [1] | GI50 [2] | GI50 [3] | GI50 [4] | GI50 [5] | GI50 [6] | GI50 [7] | GI50 [8] | GI50 [9] | GI50 [10] | GI50 [11] | GI50 [12] | GI50 [13] | GI50 [14] | GI50 [15] | GI50 [16] | GI50 [17] | GI50 [18] | GI50 [19]
1 | COc1cc2oc(=O)cc(C)c2c(OC)c1OC | > 100 µM (inactive) | > 100 µM (inactive) | > 100 µM (inactive) | > 100 µM (inactive) | > 100 µM (inactive) | > 100 µM (inactive) | > 100 µM (inactive) | > 100 µM (inactive) | > 100 µM (inactive) | > 100 µM (inactive) | > 100 µM (inactive) | > 100 µM (inactive) | > 100 µM (inactive) | > 100 µM (inactive) | > 100 µM (inactive) | > 100 µM (inactive) | – | – | –
2 | COC(=O)CCCC(=O)C1=NN(c2ccc(Cl)cc2)Cc2ccccc2N1 | > 100 µM (inactive) | 51.4 µM (inactive) | 60.5 µM (inactive) | > 100 µM (inactive) | 91 µM (inactive) | > 100 µM (inactive) | 20.7 µM (inactive) | > 100 µM (inactive) | – | > 100 µM (inactive) | – | > 100 µM (inactive) | > 100 µM (inactive) | 98.6 µM (inactive) | > 100 µM (inactive) | 17.6 µM (inactive) | 5.56 µM (inactive) | > 100 µM (inactive) | –
3 | CCN1CC2=C(NC(=S)NC2c2cc(OC)c(OC)c(OC)c2)/C(=C/c2cc(OC)c(OC)c(OC)c2)C1 (stereo unspecified) | 36.1 µM (inactive) | 27.5 µM (inactive) | 50.6 µM (inactive) | 6.31 µM (inactive) | 26.4 µM (inactive) | 45.1 µM (inactive) | 75.2 µM (inactive) | 14.4 µM (inactive) | 25.8 µM (inactive) | 44.9 µM (inactive) | 0.871 µM (active) | 13.2 µM (inactive) | 53 µM (inactive) | 23.4 µM (inactive) | 17.3 µM (inactive) | 28.4 µM (inactive) | – | 18.1 µM (inactive) | 19.5 µM (inactive)
4 | CC(=O)Oc1ccc(N2C(=O)C3c4[nH]c5ccccc5c4C4CCC(C(C)(C)C)CC4C3C2=O)cc1 (stereo unspecified) | 3.33 µM (inactive) | 12.7 µM (inactive) | 3.79 µM (inactive) | 3.34 µM (inactive) | 2.79 µM (inactive) | 3.27 µM (inactive) | – | 2.63 µM (inactive) | 4.67 µM (inactive) | 3.55 µM (inactive) | 6.56 µM (inactive) | 2.84 µM (inactive) | 4.37 µM (inactive) | 3.3 µM (inactive) | 3.26 µM (inactive) | 2.1 µM (inactive) | – | 3.03 µM (inactive) | 2.21 µM (inactive)
5 | COC(=O)c1nc2c3c(cccc3c1C(=O)OC)Nc1ccccc1-2 | 40.9 µM (inactive) | 65.3 µM (inactive) | 23.6 µM (inactive) | 38.5 µM (inactive) | 15.5 µM (inactive) | 32.1 µM (inactive) | 35.9 µM (inactive) | > 100 µM (inactive) | 46.2 µM (inactive) | 36.6 µM (inactive) | 29.2 µM (inactive) | 15.4 µM (inactive) | 21.1 µM (inactive) | 34.8 µM (inactive) | 54.1 µM (inactive) | 27.5 µM (inactive) | – | 16.9 µM (inactive) | 53 µM (inactive)
6 | N#Cc1nc(C2=C(Cl)c3ccccc3OC2)[nH]c1C#N | 33.6 µM (inactive) | – | – | 32.6 µM (inactive) | 11 µM (inactive) | 18.4 µM (inactive) | 53.3 µM (inactive) | 38.5 µM (inactive) | – | 32.5 µM (inactive) | – | 19.1 µM (inactive) | – | 19.1 µM (inactive) | 22.2 µM (inactive) | 32.1 µM (inactive) | – | 14.9 µM (inactive) | 22.7 µM (inactive)
7 | CC(C)CC(=O)CC(C)[C@]1(CCCOCc2ccccc2)C(=O)N2CCC3(C[C@@]24CCC[C@H]41)OCCO3 (stereo partly specified) | > 10 µM (inactive) | > 10 µM (inactive) | > 10 µM (inactive) | > 10 µM (inactive) | > 10 µM (inactive) | > 10 µM (inactive) | > 10 µM (inactive) | > 10 µM (inactive) | > 10 µM (inactive) | – | – | > 10 µM (inactive) | > 10 µM (inactive) | – | > 10 µM (inactive) | > 10 µM (inactive) | – | > 10 µM (inactive) | > 10 µM (inactive)
8 | O=C(C/C(=N\NC(=O)C[n+]1ccccc1)C(=O)Nc1nc2ccc([N+](=O)[O-])cc2s1)CC(c1ccccc1)c1c(O)c2ccccc2oc1=O (stereo unspecified) | > 100 µM (inactive) | – | > 100 µM (inactive) | > 100 µM (inactive) | – | – | > 100 µM (inactive) | > 100 µM (inactive) | – | > 100 µM (inactive) | > 100 µM (inactive) | > 100 µM (inactive) | > 100 µM (inactive) | > 100 µM (inactive) | > 100 µM (inactive) | > 100 µM (inactive) | – | > 100 µM (inactive) | > 100 µM (inactive)
9 | CN(C)CC1CCCCCC(Br)C1=O (stereo unspecified) | 4.06 µM (inactive) | 20.7 µM (inactive) | 24.8 µM (inactive) | 24.2 µM (inactive) | 21.3 µM (inactive) | 19.6 µM (inactive) | 15 µM (inactive) | 17.2 µM (inactive) | – | 6.79 µM (inactive) | 6.5 µM (inactive) | 15.5 µM (inactive) | > 64.6 µM (inactive) | 7.76 µM (inactive) | 2.02 µM (inactive) | 2.25 µM (inactive) | 9.23 µM (inactive) | 5.66 µM (inactive) | 6.12 µM (inactive)
10 | COC(=O)C[C@H]1[C@]2(C)C3=C(C)[C@H](c4ccoc4)CC3O[C@@H]2[C@@H]2OC(=O)[C@]3(C)CCC(=O)[C@@]1(C)[C@@H]23 (stereo partly specified) | – | – | > 100 µM (inactive) | 48 µM (inactive) | – | 60.8 µM (inactive) | 41.3 µM (inactive) | 27.5 µM (inactive) | 49.9 µM (inactive) | > 100 µM (inactive) | 40.4 µM (inactive) | 56.6 µM (inactive) | > 100 µM (inactive) | 33.8 µM (inactive) | 35.2 µM (inactive) | 32.3 µM (inactive) | > 100 µM (inactive) | > 100 µM (inactive) | 22.8 µM (inactive)
11 | CN(C)c1cccc2c1C(=O)C=CC21c2ccc(N(C)C)c3c(N(C)C)ccc(c23)C(c2ccccc2)C1c1ccccc1 (stereo unspecified) | 12 µM (inactive) | 12.7 µM (inactive) | 17.6 µM (inactive) | 12.9 µM (inactive) | 9.71 µM (inactive) | 10.5 µM (inactive) | 3.85 µM (inactive) | 28.1 µM (inactive) | 16.4 µM (inactive) | 13.1 µM (inactive) | 18 µM (inactive) | 14.2 µM (inactive) | 14.5 µM (inactive) | 14.9 µM (inactive) | 18.3 µM (inactive) | 9.44 µM (inactive) | – | 8.73 µM (inactive) | 3.34 µM (inactive)
12 | CSc1cc(Cl)c(C)cc1S(=O)(=O)NC(=O)Nc1ccc(Cl)cc1 | 28.5 µM (inactive) | 22 µM (inactive) | 24.6 µM (inactive) | 35.9 µM (inactive) | 19.9 µM (inactive) | 36.6 µM (inactive) | 40.1 µM (inactive) | 45.3 µM (inactive) | 33.5 µM (inactive) | 27.8 µM (inactive) | 31.6 µM (inactive) | 22.2 µM (inactive) | 29.6 µM (inactive) | 35.2 µM (inactive) | 29.9 µM (inactive) | 31.2 µM (inactive) | – | 24.4 µM (inactive) | 12.3 µM (inactive)
13 | CCOC(=O)C(Cc1c(C=O)[nH]c2ccccc12)(NC(=O)c1ccccc1)C(=O)OCC | 22.4 µM (inactive) | 19.5 µM (inactive) | – | 15 µM (inactive) | – | 11.6 µM (inactive) | – | 20.5 µM (inactive) | – | 14.4 µM (inactive) | 17.7 µM (inactive) | 11.4 µM (inactive) | 14.4 µM (inactive) | 16.4 µM (inactive) | 6.46 µM (inactive) | 16.7 µM (inactive) | – | 11.7 µM (inactive) | > 100 µM (inactive)
14 | O=C1C(NCCc2ccc(O)c([N+](=O)[O-])c2)=CC(=O)c2[nH]cnc21 | 36.1 µM (inactive) | – | 68.4 µM (inactive) | – | 67 µM (inactive) | 32.3 µM (inactive) | – | 33.3 µM (inactive) | 16.3 µM (inactive) | 44.3 µM (inactive) | 5.79 µM (inactive) | 16.2 µM (inactive) | 10.5 µM (inactive) | 34.6 µM (inactive) | 18.4 µM (inactive) | 47.2 µM (inactive) | 18.5 µM (inactive) | – | 21.2 µM (inactive)
15 | COc1cc2nc(-c3cccs3)nc(Nc3ccccc3C(=O)NN)c2cc1OC | > 100 µM (inactive) | > 100 µM (inactive) | > 100 µM (inactive) | > 100 µM (inactive) | > 100 µM (inactive) | 96.2 µM (inactive) | 27.8 µM (inactive) | > 100 µM (inactive) | – | > 100 µM (inactive) | > 100 µM (inactive) | > 100 µM (inactive) | 66.8 µM (inactive) | > 100 µM (inactive) | 97.5 µM (inactive) | 95.7 µM (inactive) | > 100 µM (inactive) | 21.6 µM (inactive) | 44.9 µM (inactive)
16 | Cc1nc(=O)c2cc(CN(C)c3ccc(C(=O)N[C@@H](CCC(=O)O)C(=O)O)s3)ccc2[nH]1 [RALTITREXED] | > 100 µM (inactive) | > 100 µM (inactive) | 0.13 µM (active) | 12.8 µM (inactive) | > 100 µM (inactive) | 0.546 µM (active) | > 100 µM (inactive) | > 100 µM (inactive) | – | 0.0467 µM (active) | 0.303 µM (active) | – | 0.0535 µM (active) | > 100 µM (inactive) | 0.0104 µM (active) | 0.0438 µM (active) | > 100 µM (inactive) | > 100 µM (inactive) | 5.92 µM (inactive)
